Test results: PubChem BioAssay (NCI)
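GI50 marks 50% less growth. At the TGI there is no net growth.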

Assays:
Assay in all cases: NCI-60 cell line screen, 384-well format
[1] = system: 786-0 renal
[2] = system: A498 renal
[3] = system: ACHN renal
[4] = system: BT-549 breast
[5] = system: CAKI-1 renal
[6] = system: COLO 205 colon
[7] = system: DU-145 prostate
[8] = system: EKVX NSCLC
[9] = system: HCC-2998 colon
[10] = system: HL-60(TB) leukemia
[11] = system: HOP-62 NSCLC
[12] = system: HOP-92 NSCLC
[13] = system: HS 578T breast
[14] = system: KM12 colon
[15] = system: LOX IMVI melanoma
[16] = system: M14 melanoma
[17] = system: MCF7 breast
[18] = system: MDA-MB-231 breast
[19] = system: MDA-MB-468 breast
[20] = system: MOLT-4 leukemia
[21] = system: NCI-H226 lung
[22] = system: NCI-H23 lung
[23] = system: NCI-H322M lung
[24] = system: NCI-H522 lung
[25] = system: NCI/ADR-RES ovarian
[26] = system: OVCAR-3 ovarian
[27] = system: OVCAR-4 ovarian
[28] = system: OVCAR-8 ovarian
[29] = system: PC-3 prostate
[30] = system: RPMI-8226 leukemia
[31] = system: RXF 393 renal
[32] = system: SF-268 CNS
[33] = system: SF-295 CNS
[34] = system: SF-539 CNS
[35] = system: SK-MEL-2 melanoma
[36] = system: SK-MEL-5 melanoma
[37] = system: SK-OV-3 ovarian
[38] = system: SN12C renal
[39] = system: SNB-19 CNS
[40] = system: SNB-75 CNS
[41] = system: SR leukemia
[42] = system: T-47D breast
[43] = system: TK-10 renal
[44] = system: U251 glioblastoma
[45] = system: UACC-257 melanoma
[46] = system: UACC-62 melanoma
[47] = system: UO-31 renal

Molecule `COc1ccc2c(Oc3ccc(NC(=O)c4c(C)n(CC(C)(C)O)n(-c5ccccc5)c4=O)nc3)ccnc2c1` has a GI50 [1] of 19.8 µM, a TGI [1] greater than 100 µM and a GI50 [2] of 4.43 µM. For the same molecule, the TGI [2] was greater than 100 µM, the GI50 [3] was 5.81 µM and the TGI [3] was greater than 100 µM. For the same molecule, the GI50 [4] was 11.5 µM, the TGI [4] was 25.7 µM and the GI50 [5] was 3.45 µM. The TGI [5] was greater than 100 µM, the GI50 [6] was 42.2 µM and the TGI [6] was greater than 100 µM. For the same molecule, the GI50 [7] was 8.18 µM, the TGI [7] was greater than 100 µM and the GI50 [8] was 37.3 µM. It also gave a TGI [8] greater than 100 µM, a GI50 [9] greater than 100 µM and a TGI [9] greater than 100 µM. For the same molecule, the GI50 [10] was 5.49 µM, the TGI [10] was 14.9 µM and the GI50 [11] was 15.3 µM. For the same molecule, the TGI [11] was greater than 100 µM, the GI50 [12] was 10.4 µM and the TGI [12] was 41.1 µM. The GI50 [13] was 4.65 µM, the TGI [13] was 34.6 µM and the GI50 [14] was 0.73 µM. The TGI [14] was greater than 100 µM, the GI50 [15] was 47.2 µM and the TGI [15] was greater than 100 µM. The GI50 [16] was 6.34 µM, the TGI [16] was 70.2 µM and the GI50 [17] was 46.4 µM. The TGI [17] was greater than 100 µM, the GI50 [18] was 9.28 µM and the TGI [18] was 29.1 µM. The GI50 [19] was 22.9 µM, the TGI [19] was greater than 100 µM and the GI50 [20] was 3.58 µM. The TGI [20] was 12.4 µM, the GI50 [21] was 22.6 µM and the TGI [21] was greater than 100 µM. The GI50 [22] was 10.8 µM, the TGI [22] was greater than 100 µM and the GI50 [23] was 10.3 µM. The TGI [23] was greater than 100 µM, the GI50 [24] was 14.4 µM and the TGI [24] was 54.1 µM. The GI50 [25] was 25.7 µM, the TGI [25] was greater than 100 µM and the GI50 [26] was 13 µM. It also gave a TGI [26] of 31.6 µM, a GI50 [27] of 15.2 µM and a TGI [27] greater than 100 µM. It also gave a GI50 [28] of 13.8 µM, a TGI [28] greater than 100 µM and a GI50 [29] of 18.5 µM. It also gave a TGI [29] greater than 100 µM, a GI50 [30] of 6.85 µM and a TGI [30] of 19.4 µM. For the same molecule, the GI50 [31] was 2.42 µM, the TGI [31] was 9.27 µM and the GI50 [32] was 19.9 µM. For the same molecule, the TGI [32] was greater than 100 µM, the GI50 [33] was 13.9 µM and the TGI [33] was greater than 100 µM. It also gave a GI50 [34] of 10.1 µM, a TGI [34] of 64 µM and a GI50 [35] of 13 µM. The TGI [35] was 33.4 µM, the GI50 [36] was 13.8 µM and the TGI [36] was greater than 100 µM. It also gave a GI50 [37] of 4.04 µM, a TGI [37] greater than 100 µM and a GI50 [38] of 2.24 µM. For the same molecule, the TGI [38] was 86.8 µM, the GI50 [39] was 34.1 µM and the TGI [39] was greater than 100 µM. For the same molecule, the GI50 [40] was 7.61 µM, the TGI [40] was 53.1 µM and the GI50 [41] was 6.58 µM. The TGI [41] was 19 µM, the GI50 [42] was 33.7 µM and the TGI [42] was greater than 100 µM. For the same molecule, the GI50 [43] was 10.8 µM, the TGI [43] was 100 µM and the GI50 [44] was 24.7 µM. For the same molecule, the TGI [44] was greater than 100 µM, the GI50 [45] was 25.1 µM and the TGI [45] was greater than 100 µM. The GI50 [46] was 4.99 µM, the TGI [46] was 24 µM and the GI50 [47] was 18.4 µM. For the same molecule, the TGI [47] was greater than 100 µM.
Work on `Cn1cc(-c2ccc(-c3cncc(Cl)c3N3CCC4(CCNC4=O)CC3)cc2)cn1` yielded a GI50 [1] of 11.8 µM, a TGI [1] greater than 92.2 µM and a GI50 [2] of 4.45 µM. For the same molecule, the TGI [2] was 33.1 µM, the GI50 [3] was 15.4 µM and the TGI [3] was 81.9 µM. It also gave a GI50 [4] of 19.9 µM, a TGI [4] of 58.5 µM and a GI50 [5] of 22.5 µM. For the same molecule, the TGI [5] was greater than 100 µM, the GI50 [6] was 16.3 µM and the TGI [6] was greater than 60 µM. It also gave a GI50 [7] of 11 µM, a TGI [7] of 62.2 µM and a GI50 [8] of 20.8 µM. It also gave a TGI [8] of 78.8 µM, a GI50 [9] of 15.5 µM and a TGI [9] of 47.9 µM. The GI50 [10] was 1.73 µM, the TGI [10] was 5.74 µM and the GI50 [11] was 15.2 µM. It also gave a TGI [11] of 39.9 µM, a GI50 [12] of 40.6 µM and a TGI [12] greater than 100 µM. It also gave a GI50 [13] of 49.1 µM, a TGI [13] greater than 100 µM and a GI50 [14] of 21.3 µM. For the same molecule, the TGI [14] was greater than 94.3 µM, the GI50 [15] was 29.5 µM and the TGI [15] was greater than 75.1 µM. The GI50 [16] was 39.4 µM, the TGI [16] was greater than 100 µM and the GI50 [17] was 15.9 µM. The TGI [17] was 52.8 µM, the GI50 [18] was 17.1 µM and the TGI [18] was greater than 76.7 µM. For the same molecule, the GI50 [19] was 3.15 µM, the TGI [19] was 18.4 µM and the GI50 [20] was 6.92 µM. The TGI [20] was 24.2 µM, the GI50 [21] was 18.6 µM and the TGI [21] was 59.8 µM. It also gave a GI50 [22] of 22.5 µM, a TGI [22] of 59 µM and a GI50 [23] of 22.3 µM. It also gave a TGI [23] greater than 95.3 µM, a GI50 [24] of 13.1 µM and a TGI [24] of 48.2 µM. For the same molecule, the GI50 [25] was 22.1 µM, the TGI [25] was greater than 71.5 µM and the GI50 [26] was 17.3 µM. It also gave a TGI [26] of 51.3 µM, a GI50 [27] of 39.6 µM and a TGI [27] greater than 90 µM. It also gave a GI50 [28] of 25.1 µM, a TGI [28] greater than 100 µM and a GI50 [29] of 26.3 µM. For the same molecule, the TGI [29] was greater than 100 µM, the GI50 [30] was 1.17 µM and the TGI [30] was 18.4 µM. For the same molecule, the GI50 [31] was 14.7 µM, the TGI [31] was greater than 96.1 µM and the GI50 [32] was 45.8 µM. For the same molecule, the TGI [32] was greater than 100 µM, the GI50 [33] was 25.2 µM and the TGI [33] was greater than 87.2 µM. For the same molecule, the GI50 [34] was 41.4 µM, the TGI [34] was greater than 100 µM and the GI50 [35] was 16.9 µM. It also gave a TGI [35] of 39.2 µM, a GI50 [36] of 15.6 µM and a TGI [36] of 33.5 µM. The GI50 [37] was 34 µM, the TGI [37] was greater than 100 µM and the GI50 [38] was 45.2 µM. The TGI [38] was greater than 100 µM, the GI50 [39] was 47.4 µM and the TGI [39] was greater than 100 µM. The GI50 [40] was 40 µM, the TGI [40] was greater than 95.9 µM and the TGI [41] was 0.485 µM. The GI50 [42] was 13.5 µM, the TGI [42] was 48.4 µM and the GI50 [43] was 11.2 µM. For the same molecule, the TGI [43] was 99.9 µM, the GI50 [44] was 30.4 µM and the TGI [44] was greater than 80.1 µM. The GI50 [45] was 35.6 µM, the TGI [45] was greater than 71.3 µM and the GI50 [46] was 20.1 µM. The TGI [46] was 58.1 µM, the GI50 [47] was 26.9 µM and the TGI [47] was greater than 100 µM.
